In assay [1] the test system is RPMI-8226 multiple myeloma cells. In words: Proliferation of multiple myeloma cells (CellTiter-Glo). It is filed as cell-based, human. The conditions noted are these: RPMI8226, 24 hours, 100 μM to 0 μM. Here is the method: FIG. 5. Graph showing inhibition of proliferation of multiple myeloma cells by IRE-1α inhibitor 11-28 (Example 11). RPMI-8226 multiple myeloma cells were seeded at 20,000 cells per well in RPMI culture medium containing 1% FBS and the required antibiotics. The plate was incubated overnight at 37° C., 95% air, 5% CO2. The following day, compound 11-28 or medium alone was added to wells, resulting in a final volume of 100 μl per well. The compound concentration ranged from 100 μM to 0 μM, with compounds diluted by a factor of 4. After addition of compound, the plate was incubated at 37° C., 95% air, 5% CO2 for 24 hours. Cell proliferation was measured using the CellTiter-Glo assay (Promega), following the manufacturer's instructions.
Proliferation assays using myeloma cell lines (U266, RPMI8226 and MM.1s) are used to determine ED50. Compounds are used as single agents and in combination with other chemotherapeutic drugs.

For assay [2], the system named is phosphorylated IRE-1α and XBP1-splicing in RPMI8226 cells. In words: Western blot and RT-PCR of bortezomib-treated RPMI8226 cells. It is filed as cell-based, human. The conditions noted are these: 24 hour treatment.
In assay [3] the test system is human myeloma RPMI8226 tumor xenografts. In words: RPMI8226 xenograft efficacy model. It is filed as in vivo, mouse. The following applies: SCID mice, 0.75 mg/kg IV twice weekly.
Protocol: Mice are monitored for tumor growth, regression and general health. Tumors are collected and characterized by immunohistochemistry and/or FACS analysis. Tumor growth is measured by calipers, ultrasound, or by abdominal lavage. Biomarkers in the blood or tumor can evaluated (primarily XBP-1 splicing).
A further assay has as its system primary murine B cells. Description: IgM secretion after LPS stimulation of primary B cells. It is filed as cell-based, mouse. The conditions noted are these: added at beginning of stimulation and again at 24 hours; all doses down to 100 nM. As for the experimental part: FIG. 9. Inhibition of IgM secretion after LPS stimulation of primary murine B cells with selected IRE-1α inhibitors. […] However, compounds had little effect when at added after 40 hours of stimulation; only slight inhibition at the highest dose. Methods were performed as previously described by Iwakoshi et al., Nature 4, 321-29, 2003 for B cell stimulation, plasma cell differentiation and IgM secretion. Primary B cells were Isolated from BALB/c splenocytes using mouse CD43 Microbeads (Miltenyi cat#130-049-801) with 1×10^6 cells per treatment. Purified B cells were stimulated in B Cell Media at a final density of 1×10^6/ml/well in 24-well plates with 20 μg/ml LPS (Sigma cat# L4391). IRE-1α inhibitor compound 17-1 was added at various concentrations (50 μM, 10 μM, 2 μM, 0.4 μM and 0.08 μM) at specified time points (t=0, t=24 hr, t=40 hr, etc.) Cells were incubated for 48 hr at 37° C. At end of the incubation, cells were spun in a plate at 1500 rpm/3 min. Supernatants were collected for quantitation for IgM secretion using a mouse IgM ELISA Kit (Bethyl Labs cat# E90-101). B Cell medium included RPMI+10% FBS supplemented with NEAA, HEPES, NaPyr, PSQ, and β-mercaptoethanol.

Molecules are shown by their SMILES.

Consider `COc1cc(-c2cccs2)cc(C=O)c1O` [11-28], for which, in assay [1], the “inhibition of cell proliferation” value was “inhibits the proliferation”. On to `CC(C)C[C@H](NC(=O)[C@H](Cc1ccccc1)NC(=O)c1cnccn1)B(O)O` [bortezomib, [(1R)-3-methyl-1-[[(2S)-1-oxo-3-phenyl-2-[(pyrazinylcarbonyl)amino]propyl]amino]butyl] boronic acid], for which, in assay [2], the XBP1-splicing result is “increases” and the “levels of phosphorylated IRE-1α” value is “increases”. In addition, in assay [3], the tumor growth entry is “suppression of tumor growth”.

As for `CN(C)C(=O)c1ccc(-c2ccc3c(C=O)c(O)ccc3c2)cc1` [compound 17-1, 4-(5-formyl-6-hydroxynaphthalen-2-yl)-N,N-dimethylbenzamide], the IgM secretion entry in the assay on primary murine B cells is on record as “blocked IgM secretion”.

These data come from patent US9981901B2, “IRE-1α inhibitors” (FOSUN ORINOVE PHARMATECH, INC., priority 2007, dated 2018).
